Reference: patent US7659263B2, “Thienopyrrole compound and use thereof as HCV polymerase inhibitor” (Japan Tobacco Inc., priority 2004, dated 2010)
Structures can show the parent of a compound that is named as a salt.

Legend:
[1] = molecular target: T1, NS5B 1a (Hepatitis C virus genotype 1a, UniProt P27958); test: Assay of enzyme (HCV polymerase) inhibitory activity, NS5B 1a; type: biochemical; conditions: HCV polymerase NS5B 1a; [3H]UTP incorporation, 25° C., 90 min
T1 construct: NS5B 1a

[2] = molecular target: T2, NS5B 1b (Hepatitis C virus genotype 1b, UniProt P26663); test: Assay of enzyme (HCV polymerase) inhibitory activity, NS5B 1b; type: biochemical
T2 construct: a region encoding NS5B (J Virol 1991 March, 65(3), 1105-13, 544 amino acids after deletion of 47 amino acids on the C-terminal); 6 His (C); made in house; host or cells: Escherichia coli
Description: The evaluation of the HCV polymerase inhibitory activity of the compound of the present invention is explained in the following. This polymerase is an enzyme coded for by the non-structural protein region called NS5B on the genome RNA of HCV (EMBO J., 15:12-22, 1996).
i) Preparation of enzyme (HCV polymerase)
Using, as a template, a cDNA clone corresponding to the full length genome RNA of HCV BK strain obtained from the blood of a patient with hepatitis C, a region encoding NS5B (J Virol 1991 March, 65(3), 1105-13, 544 amino acids after deletion of 47 amino acids on the C-terminal) was amplified by PCR. The objective gene was prepared by adding a 6 His tag {base pair encoding 6 continuous histidine (His)} to the 3′ end thereof and transformed to Escherichia coli. The Escherichia coli capable of producing the objective protein was cultured. The obtained cells were suspended in a buffer solution and crushed in a microfluidizer. The supernatant was obtained by centrifugation and applied to various column chromatographys {mono-S, Sephacryl S-200 (Pharmacia)}, inclusive of metal chelate chromatography, to give a standard enzyme product.
ii) Synthesis of Substrate RNA
Using a synthetic primer designed based on the sequence of HCV genomic 3′ untranslated region, a DNA fragment (148 bp) containing polyU and 3′X sequence was entirely synthesized and cloned into plasmid pBluescript SK II(+) (Stratagene). The cDNA encoding full length NS5B, which was prepared in i) above, was digested with restriction enzyme KpnI to give a cDNA fragment containing the nucleotide sequence of from the restriction enzyme cleavage site to the termination codon. This cDNA fragment was inserted into the upstream of 3′ untranslated region of the DNA in pBluescript SK II(+) and ligated. The about 450 bp inserted DNA sequence was used as a template in the preparation of substrate RNA. This plasmid was cleaved immediately after the 3′X sequence, linearized and purified by phenol-chloroform treatment and ethanol precipitation to give DNA.
RNA was synthesized (37° C., 3 hr) by run-off method using this purified DNA as a template, a promoter of pBluescript SK II(+), MEGAscript RNA synthesis kit (Ambion) and T7 RNA polymerase. DNase I was added and the mixture was incubated for 1 hr. The template DNA was removed by decomposition to give a crude RNA product. This crude product was treated with phenol-chloroform and purified by ethanol precipitation to give the objective substrate RNA.
This RNA was applied to formaldehyde denaturation agarose gel electrophoresis to confirm the quality thereof and preserved at −80° C. iii) Assay of enzyme (HCV polymerase) inhibitory activity A test substance (compound of the present invention) and a reaction mixture (30 μl) having the following composition were reacted at 25° C. for 90 min.
10% Trichloroacetic acid at 4° C. and 1% sodium pyrophosphate solution (150 μl) were added to this reaction mixture to stop the reaction. The reaction mixture was left standing in ice for 15 min to insolubilize RNA. This RNA was trapped on a glass filter (Whatman GF/C and the like) upon filtration by suction. This filter was washed with a solution containing 1% trichloroacetic acid and 0.1% sodium pyrophosphate, washed with 90% ethanol and dried. A liquid scintillation cocktail (Packard) was added and the radioactivity of RNA synthesized by the enzyme reaction was measured on a liquid scintillation counter.
The HCV polymerase inhibitory activity (IC50) of the compound of the present invention was calculated from the values of radioactivity of the enzyme reaction with and without the 20 test substance. […]

T2 sequence (P26663 2420-2963): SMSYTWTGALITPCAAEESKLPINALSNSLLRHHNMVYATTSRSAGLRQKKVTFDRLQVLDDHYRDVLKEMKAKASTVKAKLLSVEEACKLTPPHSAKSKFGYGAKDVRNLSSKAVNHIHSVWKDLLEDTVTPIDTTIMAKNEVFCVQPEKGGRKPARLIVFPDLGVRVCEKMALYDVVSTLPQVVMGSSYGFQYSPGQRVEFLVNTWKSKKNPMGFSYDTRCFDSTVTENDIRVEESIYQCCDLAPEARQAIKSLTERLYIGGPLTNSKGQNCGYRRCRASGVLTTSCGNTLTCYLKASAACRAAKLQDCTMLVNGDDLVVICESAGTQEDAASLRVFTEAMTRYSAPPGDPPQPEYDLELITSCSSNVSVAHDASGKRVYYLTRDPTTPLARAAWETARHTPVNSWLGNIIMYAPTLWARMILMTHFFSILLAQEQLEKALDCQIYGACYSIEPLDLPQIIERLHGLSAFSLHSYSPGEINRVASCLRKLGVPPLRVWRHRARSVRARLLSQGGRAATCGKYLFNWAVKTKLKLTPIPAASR
T1 sequence (P27958 2421-3011): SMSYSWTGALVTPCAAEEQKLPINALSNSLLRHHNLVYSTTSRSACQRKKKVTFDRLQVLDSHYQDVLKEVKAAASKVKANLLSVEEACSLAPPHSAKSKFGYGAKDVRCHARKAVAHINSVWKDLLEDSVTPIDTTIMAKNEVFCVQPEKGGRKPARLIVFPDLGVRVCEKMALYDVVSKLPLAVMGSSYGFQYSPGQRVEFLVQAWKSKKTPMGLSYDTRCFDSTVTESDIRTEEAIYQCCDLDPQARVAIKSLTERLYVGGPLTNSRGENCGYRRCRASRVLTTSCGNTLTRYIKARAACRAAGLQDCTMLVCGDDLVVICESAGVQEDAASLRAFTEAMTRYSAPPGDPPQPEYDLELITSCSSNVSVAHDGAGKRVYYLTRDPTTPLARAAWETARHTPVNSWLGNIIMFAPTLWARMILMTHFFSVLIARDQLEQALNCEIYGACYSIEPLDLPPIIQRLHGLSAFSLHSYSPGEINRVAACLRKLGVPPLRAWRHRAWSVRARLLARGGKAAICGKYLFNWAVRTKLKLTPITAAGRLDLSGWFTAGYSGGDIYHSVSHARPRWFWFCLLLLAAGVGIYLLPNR

SMILES | IC50 [1] [nM] | IC50 [2] [nM]
O=C(O)c1cc2c(s1)c(C1CCCCC1)c1n2CCN(CCN2CCCCCCC2)c2ccccc2-1 [Example 21, 6-[2-(azocan-1-yl)ethyl]-11-cyclohexyl-5,6-dihydro-4H-1-thia-3b,6-diazabenzo[e]cyclopenta[a]azulene-2-carboxylic acid dihydrochloride] | 10 to 100 | < 10
O=C(O)c1cc2c(s1)c(C1CCCCC1)c1n2CCN(CCN2CCCCCCC2)c2cc(Cl)ccc2-1 [Example 29, 6-[2-(azocan-1-yl)ethyl]-8-chloro-11-cyclohexyl-5,6-dihydro-4H-1-thia-3b,6-diazabenzo[e]cyclopenta[a]azulene-2-carboxylic acid dihydrochloride] | 10 to 100 | 10 to 100
CCN1CCN(C(=O)CN2CCn3c(c(C4CCCCC4)c4sc(C(=O)O)cc43)-c3ccc(Cl)cc32)CC1 [Example 36, 8-chloro-11-cyclohexyl-6-[2-(4-ethylpiperazin-1-yl)-2-oxoethyl]-5,6-dihydro-4H-1-thia-3b,6-diazabenzo[e]cyclopenta[a]azulene-2-carboxylic acid dihydrochloride] | 10 to 100 | 10 to 100
O=C(O)c1cc2c(s1)c(C1CCCCC1)c1n2CCN(CCN2CCCOCC2)c2cc(Cl)ccc2-1 [Example 32, 8-chloro-11-cyclohexyl-6-[2-(1,4-oxazepan-4-yl)ethyl]-5,6-dihydro-4H-1-thia-3b,6-diazabenzo[e]cyclopenta[a]azulene-2-carboxylic acid dihydrochloride] | 10 to 100 | < 10
Cc1ccc2c(c1)N(C)CCn1c-2c(C2CCCCC2)c2sc(C(=O)NC3(C(=O)Nc4ccc(/C=C/C(=O)O)cc4)CCC3)cc21 [Example 38, (E)-3-[4-({1-[(11-cyclohexyl-6,8-dimethyl-5,6-dihydro-4H-1-thia-3b,6-diazabenzo[e]cyclopenta[a]azulene-2-carbonyl)amino]cyclobutanecarbonyl)amino)phenyl]acrylic acid] | 10 to 100 | 10 to 100
CC1CCCN(CCN2CCn3c(c(C4CCCCC4)c4sc(C(=O)O)cc43)-c3ccccc32)C1 (stereo not drawn) [Example 22, 11-cyclohexyl-6-[2-(3-methylpiperidin-1-yl)ethyl]-5,6-dihydro-4H-1-thia-3b,6-diazabenzo[e]cyclopenta[a]azulene-2-carboxylic acid dihydrochloride] | 10 to 100 | 10 to 100
O=C(O)c1cc2c(s1)c(C1CCCCC1)c1n2CCN(CCN2CCCCC2)c2ccccc2-1 [Example 8, 11-cyclohexyl-6-[2-(piperidin-1-yl)ethyl]-5,6-dihydro-4H-1-thia-3b,6-diazabenzo[e]cyclopenta[a]azulene-2-carboxylic acid dihydrochloride] | 10 to 100 | 10 to 100
CC(C)(C)OC(=O)N1CCN(CCN2CCn3c(c(C4CCCCC4)c4sc(C(=O)O)cc43)-c3ccc(Cl)cc32)CC1 [Example 34, 6-[2-(4-tert-butoxycarbonylpiperazin-1-yl)ethyl]-8-chloro-11-cyclohexyl-5,6-dihydro-4H-1-thia-3b,6-diazabenzo[e]cyclopenta[a]azulene-2-carboxylic acid hydrochloride] | 10 to 100 | 10 to 100
Cc1ccc2c(c1)N(CCN1CCCC(C)C1)CCn1c-2c(C2CCCCC2)c2sc(C(=O)O)cc21 (stereo not drawn) [Example 26, 11-cyclohexyl-8-methyl-6-[2-(3-methylpiperidin-1-yl)ethyl]-5,6-dihydro-4H-1-thia-3b,6-diazabenzo[e]cyclopenta[a]azulene-2-carboxylic acid dihydrochloride] | 10 to 100 | 10 to 100
CS(=O)(=O)c1ccc(N2CCOCC2)c(COc2ccc3c(c2)OCCn2c-3c(C3CCCCC3)c3sc(C(N)=O)cc32)c1 [Example 4, 11-cyclohexyl-8-[5-methanesulfonyl-2-(morpholin-4-yl)benzyloxy]-4,5-dihydro-6-oxa-1-thia-3b-azabenzo[e]cyclopenta[a]azulene-2-carboxamide] | 10 to 100 | < 10
O=C(O)c1cc2c(s1)c(C1CCCCC1)c1n2CCOc2c-1cccc2N(CCN1CCCCC1)CCN1CCCCC1 [Example 42, 7-{bis[2-(piperidin-1-yl)ethyl]amino}-11-cyclohexyl-4,5-dihydro-6-oxa-1-thia-3b-azabenzo[e]cyclopenta[a]azulene-2-carboxylic acid trihydrochloride] | 10 to 100 | < 10
O=C(O)c1cc2c(s1)c(C1CCCCC1)c1n2CCOc2c-1cccc2N(CCN1CCOCC1)CCN1CCOCC1 [Example 46, 7-{bis[2-(morpholin-4-yl)ethyl]amino}-1l-cyclohexyl-4,5-dihydro-6-oxa-1-thia-3b-azabenzo[e]cyclopenta[a]azulene-2-carboxylic acid trihydrochloride] | 10 to 100 | < 10
CC1CCCN(CCN2CCn3c(c(C4CCCCC4)c4sc(C(=O)O)cc43)-c3ccc(Cl)cc32)C1 (stereo not drawn) [Example 30, 8-chloro-11-cyclohexyl-6-[2-(3-methylpiperidin-1-yl)ethyl]-5,6-dihydro-4H-1-thia-3b,6-diazabenzo[e]cyclopenta[a]azulene-2-carboxylic acid dihydrochloride] | 10 to 100 | < 10
COCC[C@@H]1CCCN(CCN2CCn3c(c(C4CCCCC4)c4sc(C(=O)O)cc43)-c3ccc(Cl)cc32)C1 [Example 31, (S)-8-chloro-11-cyclohexyl-6-{2-[3-(2-methoxyethyl)piperidin-1-yl]ethyl}-5,6-dihydro-4H-1-thia-3b,6-diazabenzo[e]cyclopenta[a]azulene-2-carboxylic acid dihydrochloride] | 10 to 100 | < 10
O=C(O)c1cc2c(s1)c(C1CCCCC1)c1n2CCOc2ccccc2-1 [Example 15, 11-cyclohexyl-4,5-dihydro-6-oxa-1-thia-3b-azabenzo[e]cyclopenta[a]azulene-2-carboxylic acid] | 100 to 1000 | 10 to 100
Cc1ccc2c(c1)N(CCN1CCCOCC1)CCn1c-2c(C2CCCCC2)c2sc(C(=O)O)cc21 [Example 28, 11-cyclohexyl-8-methyl-6-[2-(1,4-oxazepan-4-yl)ethyl]-5,6-dihydro-4H-1-thia-3b,6-diazabenzo[e]cyclopenta[a]azulene-2-carboxylic acid dihydrochloride] | 10 to 100 | 10 to 100
CC(C)(C)OC(=O)N1CCN(CCN2CCn3c(c(C4CCCCC4)c4sc(C(=O)O)cc43)-c3ccccc32)CC1 [Example 11, 6-[2-(4-tert-butoxycarbonylpiperazin-1-yl)ethyl]-11-cyclohexyl-5,6-dihydro-4H-1-thia-3b,6-diazabenzo[e]cyclopenta[a]azulene-2-carboxylic acid hydrochloride] | 10 to 100 | 10 to 100
COc1ccc2c(c1)OCCn1c-2c(C2CCCCC2)c2sc(C(=O)NC3(C(=O)Nc4ccc(/C=C/C(=O)O)cc4)CCC3)cc21 [Example 37, (E)-3-[4-({1-[(11-cyclohexyl-8-methoxy-4,5-dihydro-6-oxa-1-thia-3b-azabenzo[e]cyclopenta[a]azulene-2-carbonyl)amino]cyclobutanecarbonyl}amino)phenyl]acrylic acid] | 10 to 100 | 10 to 100
